Values quoted from earlier work, collected in US20090082370A1, “Pharmaceutical Combinations of PK Inhibitors and Other Active Agents” (priority 2006, published 2009).

Tests used:
[1] = antitumour agent
[2] = in vivo
PKG = settings: read-out: IC50 against PKG
PKA = settings: read-out: IC50 against PKA
OVCAR-3 tumour cells = settings: at concentrations of 50 and 100 microM
PKC = settings: read-out: IC50 against PKC
PKB = PKB (Homo sapiens, UniProt P31749); settings: read-out: IC50 against PKB
[3] = doses 10 times more than were needed for antitumour activity
[4] = tested on: phospho-AKT in breast cancer cells; settings: both in vitro and in vivo
[5] = tested on: Acute Promyelocytic Leukemia (APL)

Chain of PKB (P31749 whole entry, species assumed): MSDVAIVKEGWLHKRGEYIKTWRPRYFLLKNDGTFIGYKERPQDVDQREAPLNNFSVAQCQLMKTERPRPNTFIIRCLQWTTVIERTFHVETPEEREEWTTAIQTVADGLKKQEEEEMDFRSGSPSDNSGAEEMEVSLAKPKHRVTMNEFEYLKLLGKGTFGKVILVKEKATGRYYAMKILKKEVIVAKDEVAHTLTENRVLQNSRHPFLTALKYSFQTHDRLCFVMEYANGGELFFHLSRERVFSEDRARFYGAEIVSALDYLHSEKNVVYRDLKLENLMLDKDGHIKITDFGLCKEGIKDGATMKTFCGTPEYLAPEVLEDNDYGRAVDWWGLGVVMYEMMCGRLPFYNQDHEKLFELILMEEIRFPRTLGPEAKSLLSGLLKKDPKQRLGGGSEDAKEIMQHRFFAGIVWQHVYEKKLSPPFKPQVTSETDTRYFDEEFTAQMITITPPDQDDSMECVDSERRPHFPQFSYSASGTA

## CCN[C@H]1CO[C@@H](O[C@H]2[C@H](O[C@H]3C#C/C=C\C#C[C@]4(O)CC(=O)C(NC(=O)OC)=C3/C4=C\CSSSC)O[C@H](C)[C@@H](NO[C@H]3C[C@H](O)[C@H](SC(=O)c4c(C)c(I)c(O[C@@H]5O[C@@H](C)[C@H](O)[C@@H](OC)[C@H]5O)c(OC)c4OC)[C@@H](C)O3)[C@@H]2O)C[C@@H]1OC [Calicheamicin]
[1]
  potency relative to adriamycin: over 1,000 times

## CCCCCCCCCCCCCCCCCCOP(=O)([O-])OC1CC[N+](C)(C)CC1 [KRX-0401]
[2]
  half-life: ~100 h

## O=S(=O)(NCCNCC=C(c1ccccc1)c1ccccc1)c1cccc2cnccc12 [NL-71-101]
PKG
  IC50: 36 µM
PKA
  IC50: 9 µM
OVCAR-3 tumour cells
  apoptosis in OVCAR-3 tumour cells, in which PKB is amplified: induced apoptosis
PKC
  IC50: 104 µM
PKB
  IC50: 3.7 µM

## CCOC(=O)c1ccc2[nH]c3c(OC)c4[nH]c5ccc(C(=O)OCC)cc5c4cc3c2c1 [SR-13668]
[3]
  adverse effects in mice: no adverse effects
[4]
  inhibition of phospho-AKT: significantly inhibits

## CC1=C(/C=C/C(C)=C/C=C/C(C)=C/C(=O)O)C(C)(C)CCC1 [Tretinoin, all-trans retinoic acid]
[5]
  remissions in APL patients: 64-100%
